This passage reports Ki results from patent US4724229A, “Arg-arg-arg-vasopressin antagonists” (Smithkline Beckman Corporation, priority 1986, dated 1988).

For orientation: Ki means a dissociation constant, usually derived from enzyme kinetics or from competition with a known ligand.

The target in test [1] is T1, receptor in the porcine renal medullary membrane (vasopressin V2 -receptors) (Sus scrofa, UniProt P32307).
T1 construct: in the porcine renal medullary membrane; from tissue; host or cells: porcine renal medullary membranes
As to the kind of experiment: [3H]LVP binding, porcine renal medullary membrane (Kbind). The following applies: competition with [3H]LVP binding, Kb = IC50/(1 + L/KD). On the procedure: V2 -antagonistic activity toward the natural anti-diuretic hormone (anti-ADH activity) is determined, in vitro, in the medullary tissue of hog or human kidneys and, in vivo, in the hydropenic rat. The in vitro assay procedures for vasopressin stimulated adenylate cyclase activation or vasopressin binding activity are described by F. Stassen et al., J. Pharmacology and Experimental Therapeutics, 223, 50-54 (1982). V1 -antagonistic activity is determined by procedures using the rat thoracic aorta tissue and plasma membranes of rat liver. These procedures are described in the noted Stassen publication and in a publication at the 1st International Conference on Diuretics, Miami, Fla., March (1984). Oxytocin antagonism is determined as described by W. Sawyer et al., Endocrinology, 106 81 (1979). | ^a Kbind is a measure of the affinity of a ligand for a receptor | in the porcine renal medullary membrane. It is derived from the equation | for competitive inhibition Kb = IC50 /(1 + L/KD) where | IC50 is the concentration of the ligand for 50% inhibition of [^ | H]LVP binding, L is the concentration of the ligand, and KD is the | dissociation constant of [^3 H]LVP.

Test [2] concerns the target T2, LVP stimulated adenylate cyclase of pig kidney medullary membrane (Sus scrofa, UniProt P32307).
T2 construct: stimulated adenylate cyclase of pig kidney medullary membrane; from tissue; host or cells: pig kidney medullary membranes
The test is described as follows: Inhibition of LVP stimulated adenylate cyclase of pig kidney medullary membrane. Format: biochemical. On the procedure: (§1) V2 -antagonistic activity toward the natural anti-diuretic hormone (anti-ADH activity) is determined, in vitro, in the medullary tissue of hog or human kidneys and, in vivo, in the hydropenic rat. The in vitro assay procedures for vasopressin stimulated adenylate cyclase activation or vasopressin binding activity are described by F. Stassen et al., J. Pharmacology and Experimental Therapeutics, 223, 50-54 (1982). V1 -antagonistic activity is determined by procedures using the rat thoracic aorta tissue and plasma membranes of rat liver. These procedures are described in the noted Stassen publication and in a publication at the 1st International Conference on Diuretics, Miami, Fla., March (1984). Oxytocin antagonism is determined as described by W. Sawyer et al., Endocrinology, 106 81 (1979). | ^b Ki is the inhibition constant measured for inhibition of LVP | stimulated adenylate cyclase of pig kidney medullary membrane, and is | derived from the equation for competitive inhibition as described.

The target of test [3] is T3, receptor in the human liver membrane tissue (V1) (Homo sapiens, UniProt P37288).
T3 construct: in the human liver membrane tissue; from tissue; host or cells: human liver membranes
The test is described as follows: Binding to human liver membranes V1 (Kbind). On the procedure: as §1, with “(1979).” for “(1979). | ^b Ki is the inhibition constant measured for inhibition of LVP | stimulated adenylate cyclase of pig kidney medullary membrane, and is | derived from the equation for competitive inhibition as described.”
^d Kbind is a measure of the affinity of a ligand for a receptor
in the human liver membrane tissue. It is derived from the equation in […]

Structures are written as SMILES. Numbered stars: 1 amine (or outer) side, 2 acyl side, 3 side chain; on linkers, the order of the positions; unused ones are H or OH. Bridge positions count the residues as written; N and C are the ends. Square brackets hold non-standard residues; d marks the D form. Peptide text beside a SMILES is read from it. X1 = O=C(CC1(S[*:2])CCCCC1)[*:1]

T1 sequence (P32307 whole entry): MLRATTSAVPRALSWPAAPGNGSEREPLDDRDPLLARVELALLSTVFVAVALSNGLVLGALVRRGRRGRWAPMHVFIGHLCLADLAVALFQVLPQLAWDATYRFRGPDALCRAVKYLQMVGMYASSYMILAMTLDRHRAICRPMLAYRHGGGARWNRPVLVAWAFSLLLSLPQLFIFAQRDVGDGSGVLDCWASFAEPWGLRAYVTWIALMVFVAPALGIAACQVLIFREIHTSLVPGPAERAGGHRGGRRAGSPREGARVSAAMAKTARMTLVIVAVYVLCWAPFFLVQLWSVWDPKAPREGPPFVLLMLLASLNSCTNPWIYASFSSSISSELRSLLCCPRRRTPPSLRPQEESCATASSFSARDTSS
T3 sequence (P37288 whole entry): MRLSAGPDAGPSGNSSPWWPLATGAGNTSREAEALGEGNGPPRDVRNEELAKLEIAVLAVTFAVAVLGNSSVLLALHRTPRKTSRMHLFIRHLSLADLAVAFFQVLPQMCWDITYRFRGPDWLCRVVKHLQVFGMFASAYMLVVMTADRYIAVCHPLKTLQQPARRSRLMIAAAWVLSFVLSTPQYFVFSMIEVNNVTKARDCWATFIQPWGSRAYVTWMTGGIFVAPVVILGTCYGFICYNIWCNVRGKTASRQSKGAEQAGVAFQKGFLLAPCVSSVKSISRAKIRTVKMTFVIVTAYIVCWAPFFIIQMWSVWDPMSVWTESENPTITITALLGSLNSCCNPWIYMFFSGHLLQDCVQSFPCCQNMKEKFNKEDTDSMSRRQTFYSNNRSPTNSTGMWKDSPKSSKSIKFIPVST
T2 sequence (P32307 whole entry): as the sequence (P32307 whole entry) above

For `CCOc1ccc(C[C@H]2NC(=O)CC3(CCCCC3)SSC[C@@H](C(=O)N[C@@H](CCCNC(=N)N)C(=O)N[C@@H](CCCNC(=N)N)C(N)=O)NC(=O)[C@H](CC(N)=O)NC(=O)[C@H](C(C)C)NC(=O)[C@H](Cc3ccccc3)NC2=O)cc1` [compound 3] ([dY](Et)FVNCRR-NH2; linker N-5 via X1), the Ki is 3.4 nM in test [1], 1.7 nM in test [2] and 1.3 nM in test [3].
As to `CCOc1ccc(C[C@H]2NC(=O)CC3(CCCCC3)SSC[C@@H](C(=O)N[C@@H](CCCNC(=N)N)C(=O)N[C@@H](CCCNC(=N)N)C(=O)N[C@@H](CCCNC(=N)N)C(N)=O)NC(=O)[C@H](CC(N)=O)NC(=O)[C@H](C(C)C)NC(=O)[C@H](Cc3ccccc3)NC2=O)cc1` [No. 1, [1-(β-mercapto-β,β-cyclopentamethylenepropionic acid)-2-(O-ethyl)-D-tyrosine-4-valine-7-arginine-8-arginine-9-arginine]-vasopressin] ([dY](Et)FVNCRRR-NH2; linker N-5 via X1), the Ki in test [1] is 2.6 nM; in test [2] it was 1.54 nM; in test [3], 4.41 nM.
As for `CCOc1ccc(C[C@H]2NC(=O)CC3(CCCCC3)SSC[C@@H](C(=O)N[C@@H](CCCNC(=N)N)C(N)=O)NC(=O)[C@H](CC(N)=O)NC(=O)[C@H](C(C)C)NC(=O)[C@H](Cc3ccccc3)NC2=O)cc1` [compound 2] ([dY](Et)FVNCR-NH2; linker N-5 via X1), the Ki in test [1] amounted to 9.1 nM; in test [3], 1.3 nM.
